pIC50: −log10 of the molar value. Like-named read-outs stand apart in the source and are kept apart here.
What was measured:
[1] = system: human embryonic kidney (HEK 293) cell lines; experiment: MTT cytotoxicity assay; format: cell-based; settings: HEK 293, MTT, 24 h
Description: Compounds 2h and 2i were also evaluated in vitro for their cytotoxic potential against human embryonic kidney (HEK 293) cell lines using the MTT assay.
The cytotoxicity of compounds 2h and 2i was analyzed in vitro by the MTT colorimetric assay on human embryonic kidney cell lines (HEK 293). HEK cell lines were cultured in DMEM supplemented with 10% fetal calf serum and 1% antibiotic-antimycotic mixture culture plates at 37 °C and 5% CO2-humidified incubator. Cells were seeded at a density of 1 × 10^5 cells/well in 96-well plate for 24 h; then, cells were washed and incubated in fresh medium. Compounds 2h and 2i were added at a concentration of 1, 5, 10, 25, and 50 μg/mL to triplicate wells and kept for 24 h, after which cells were washed three times with PBS. After washing, 20 μL of MTT solution (5 mg/mL stock solution) were added to each well, and cells were then incubated for an additional 4 h. The unreacted MTT dye and medium were aspirated off, and 100 μL of DMSO was added to each well to ensure solubilization of formazan crystals. The contents of the plates were mixed for 15 min to achieve complete solubilization of the formazan crystals, and the measurement of optical density was carried out at 570 nm with a micro plate spectrophotometer (MRX Microplate Reader, Dynatech Laboratories Inc., Chantilly, VA, USA) at 570 nm.

A549/ATCC = format: cell-based; settings: NSCLC; for CC50: read-out: LC50 (the source's name)
T-47D = format: cell-based; settings: Breast Cancer; for CC50: read-out: LC50 (the source's name)
OVCAR-8 [2] = system: OVCAR-8
TK-10 [3] = system: TK-10
PC-3 [4] = system: PC-3
[5] = system: Ovarian Cancer cell lines
[6] = system: Prostate Cancer cell lines
OVCAR-8 [7] = system: OVCAR-8; remark: listed apart in the source
TK-10 [8] = system: TK-10; remark: listed apart in the source
PC-3 [9] = system: PC-3; remark: listed apart in the source
[10] = Homo sapiens, read-out: GI50, panel MG_MID
[11] = Homo sapiens, read-out: GI50, values range inside panel
[12] = Homo sapiens, read-out: LC50, panel MG_MID
[13] = Homo sapiens, read-out: LC50, values range inside panel

## O=C(COc1ccc(Cl)cc1/C=c1\sc2ncnn2c1=O)Nc1ccc(Cl)cc1 [Compound 2h, (Z)-2-(4-Chloro-2-((6-oxothiazolo[3,2-b][1,2,4]triazol-5(6H)-ylidene)methyl)phenoxy)-N-(4-chlorophenyl)acetamide]
[1]; Homo sapiens, HEK293
  pIC50: 4.54
A549/ATCC; Homo sapiens
  GI50: 15.5 µM
  CC50: 60.2 µM
A549/ATCC
  TGI: 30.90 µM
T-47D
  TGI: 25.70 µM
T-47D; Homo sapiens, T47D
  GI50: 7.76 µM
  CC50: 28.8 µM
HL-60 (TB); HL-60 (TB), Leukemia
  TGI: 9.54 µM
HL-60 (TB); Homo sapiens, HL-60
  GI50: 2.69 µM
HL-60 (TB); Homo sapiens, HL-60, read-out: LC50
  CC50: 37.1 µM
MOLT-4; Homo sapiens, MOLT-4
  GI50: 1.9 µM
MOLT-4; Homo sapiens, MOLT-4, read-out: LC50
  CC50: 22.9 µM
MOLT-4; MOLT-4, Leukemia
  TGI: 5.01 µM
NCI-H460; Homo sapiens, NCI-H460
  GI50: 11.5 µM
NCI-H460; Homo sapiens, NCI-H460, read-out: LC50
  CC50: 49 µM
NCI-H460; NCI-H460, NSCLC
  TGI: 23.44 µM
HCT-15; HCT-15, Colon cancer
  TGI: 21.37 µM
HCT-15; Homo sapiens, HCT-15
  GI50: 9.33 µM
HCT-15; Homo sapiens, HCT-15, read-out: LC50
  CC50: 45.7 µM
HT29; HT29, Colon cancer
  TGI: 15.13 µM
HT29; Homo sapiens, HT-29
  GI50: 4.67 µM
HT29; Homo sapiens, HT-29, read-out: LC50
  CC50: 38.9 µM
SW-620; Homo sapiens, SW-620
  GI50: 4.26 µM
SW-620; Homo sapiens, SW-620, read-out: LC50
  CC50: 38 µM
SW-620; SW-620, Colon cancer
  TGI: 14.79 µM
SF-539; Homo sapiens, SF-539
  GI50: 1.77 µM
SF-539; Homo sapiens, SF-539, read-out: LC50
  CC50: 12.6 µM
SF-539; SF-539, CNS Cancer
  TGI: 4.46 µM
OVCAR-8 [2]; Homo sapiens, OVCAR-8
  GI50: 3.16 µM
OVCAR-8 [2]; Homo sapiens, OVCAR-8, read-out: LC50
  CC50: 41.7 µM
OVCAR-8 [2]; OVCAR-8, Ovarian Cancer
  TGI: 12.88 µM
786-0; 786-0, Renal Cancer
  TGI: 15.84 µM
786-0; Homo sapiens, 786-0
  GI50: 4.16 µM
786-0; Homo sapiens, 786-0, read-out: LC50
  CC50: 39.8 µM
CAKI-1; CAKI-1, Renal Cancer
  TGI: 8.12 µM
CAKI-1; Homo sapiens, CAKI-1
  GI50: 2.39 µM
CAKI-1; Homo sapiens, CAKI-1, read-out: LC50
  CC50: 28.8 µM
TK-10 [3]; Homo sapiens, TK-10
  GI50: 7.58 µM
TK-10 [3]; Homo sapiens, TK-10, read-out: LC50
  CC50: 35.5 µM
TK-10 [3]; TK-10, Renal Cancer
  TGI: 20.41 µM
PC-3 [4]; Homo sapiens, PC-3
  GI50: 3.8 µM
PC-3 [4]; Homo sapiens, PC-3, read-out: LC50
  CC50: 45.7 µM
PC-3 [4]; PC-3, Prostate Cancer
  TGI: 16.21 µM
MDA-MB-435; Homo sapiens, MDA-MB-435
  GI50: 2.95 µM
MDA-MB-435; Homo sapiens, MDA-MB-435, read-out: LC50
  CC50: 28.8 µM
MDA-MB-435; MDA-MB-435, Breast Cancer
  TGI: 12.58 µM
Melanoma cell lines; [10]
  GI50: 4.79 µM
Melanoma cell lines; [11]
  GI50: 2.63 to 8.31 µM
Melanoma cell lines; [12]
  CC50: 41.2 µM
Melanoma cell lines; [13]
  CC50: 33.1 to 51.3 µM
Melanoma cell lines; Melanoma subpanel
  TGI, panel MG_MID: 16.49 µM
  TGI, values range inside panel: 11.22 to 20.89 µM
[5]; [10]
  GI50: 8.05 µM
[5]; [11]
  GI50: 2.11 to 15.5 µM
[5]; [12]
  CC50: 52.1 µM
[5]; [13]
  CC50: 19.5 to 97.7 µM
[5]; Ovarian Cancer subpanel
  TGI, panel MG_MID: 20.34 µM
  TGI, values range inside panel: 5.62 to 30.90 µM
[6]; [10]
  GI50: 2.67 µM
[6]; [11]
  GI50: 1.54 to 3.8 µM
[6]; [12]
  CC50: 30.8 µM
[6]; [13]
  CC50: 15.8 to 45.7 µM
[6]; Prostate Cancer subpanel
  TGI, panel MG_MID: 10.34 µM
  TGI, values range inside panel: 4.46 to 16.21 µM

## Ethyl(Z)-4-(3-(4-chloro-2-((6-oxothiazolo[3,2-b][1,2,4]triazol-5(6H)-ylidene)methyl)phenyl)propanamido)benzoate [Compound 2i]
[1]
  pIC50: 4.61
A549/ATCC
  GI50: 19.5 µM
  TGI: 39.81 µM
  CC50: 79.4 µM
T-47D
  GI50: 11 µM
  TGI: 38.01 µM
  CC50: 41.7 µM
RPMI-8226
  CC50: 95.5 µM
KM12
  CC50: 55 µM
LOX IMVI
  CC50: 42.6 µM
MALME-3M
  CC50: 53.7 µM
OVCAR-8 [7]
  CC50: 85.1 µM
SK-OV-3
  CC50: 61.6 µM
ACHN
  CC50: 53.7 µM
TK-10 [8]
  CC50: 51.3 µM
UO-31
  CC50: 55 µM
PC-3 [9]
  CC50: > 100 µM
HS 578T
  CC50: 60.2 µM
Breast Cancer cell lines
  CC50: 73.2 µM
HL-60 (TB); HL-60 (TB), Leukemia
  GI50: 12.3 µM
  TGI: 41.68 µM
HL-60 (TB); read-out: LC50, HL-60 (TB), Leukemia
  CC50: > 100 µM
MOLT-4; MOLT-4, Leukemia
  GI50: 18.2 µM
  TGI: 52.48 µM
NCI-H460; NCI-H460, NSCLC
  GI50: 13.5 µM
  TGI: 27.54 µM
HCT-15; HCT-15, Colon cancer
  GI50: 13.8 µM
  TGI: 27.54 µM
HT29; HT29, Colon cancer
  GI50: 12 µM
  TGI: 24.54 µM
SW-620; SW-620, Colon cancer
  GI50: 9.99 µM
  TGI: 21.37 µM
SF-539; SF-539, CNS Cancer
  GI50: 12.6 µM
  TGI: 25.11 µM
OVCAR-8 [2]; OVCAR-8, Ovarian Cancer
  GI50: 13.5 µM
  TGI: 33.88 µM
786-0; 786-0, Renal Cancer
  GI50: 11.2 µM
  TGI: 23.98 µM
CAKI-1; CAKI-1, Renal Cancer
  GI50: 10.5 µM
  TGI: 23.98 µM
TK-10 [3]; TK-10, Renal Cancer
  GI50: 16.2 µM
  TGI: 29.51 µM
PC-3 [4]; PC-3, Prostate Cancer
  GI50: 11.2 µM
  TGI: 38.01 µM
MDA-MB-435; MDA-MB-435, Breast Cancer
  GI50: 10.5 µM
  TGI: 25.11 µM
Melanoma cell lines; Melanoma subpanel
  TGI, panel MG_MID: 25.61 µM
  TGI, values range inside panel: 18.19 to 33.11 µM
Melanoma cell lines; read-out: GI50, panel MG_MID, Melanoma subpanel
  GI50: 11.8 µM
Melanoma cell lines; read-out: GI50, values range inside panel, Melanoma subpanel
  GI50: 5.62 to 14.8 µM
Melanoma cell lines; read-out: LC50, panel MG_MID, Melanoma subpanel
  CC50: 55.4 µM
[5]; Ovarian Cancer subpanel
  TGI, panel MG_MID: 31.15 µM
  TGI, values range inside panel: 20.89 to 38.90 µM
[5]; read-out: GI50, panel MG_MID, Ovarian Cancer subpanel
  GI50: 13.7 µM
[6]; Prostate Cancer subpanel
  TGI, panel MG_MID: 27.11 µM
  TGI, values range inside panel: 16.21 to 38.01 µM
[6]; read-out: GI50, panel MG_MID, Prostate Cancer subpanel
  GI50: 7.6 µM
[6]; read-out: GI50, values range inside panel, Prostate Cancer subpanel
  GI50: 3.98 to 11.2 µM

— article PMC7926352, “Synthesis, Characterization and In Vitro Evaluation of Novel 5-Ene-thiazolo[3,2-b][1,2,4]triazole-6(5H)-ones as Possible Anticancer Agents” (Molecules, 2021)
